Experimental data taken from PubChem BioAssay (NCI).
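Growth conditions: 96-well plates. Treatment: test compound, 48 hours, 5 concentrations. Analysis: linear interpolation between bracketing concentrations; unreached endpoints set to highest concentration. Abbreviation: GI50, concentration required for 50% inhibition of growth. TGI: concentration producing complete growth inhibition.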

Legend:
Test in all cases: NCI tumour cell line growth inhibition, 48 h
786-0 renal = system: 786-0 renal
A498 renal = system: A498 renal
A549 NSCLC = system: A549 NSCLC
ACHN renal = system: ACHN renal
BT-549 breast = system: BT-549 breast
CAKI-1 renal = system: CAKI-1 renal
CCRF-CEM leukemia = system: CCRF-CEM leukemia
COLO 205 colon = system: COLO 205 colon
DU-145 prostate = system: DU-145 prostate
EKVX NSCLC = system: EKVX NSCLC
HCC-2998 colon = system: HCC-2998 colon
HCT-116 colon = system: HCT-116 colon
HCT-15 colon = system: HCT-15 colon
HL-60(TB) leukemia = system: HL-60(TB) leukemia
HOP-62 NSCLC = system: HOP-62 NSCLC
HOP-92 NSCLC = system: HOP-92 NSCLC
HS 578T breast = system: HS 578T breast
HT29 colon = system: HT29 colon
IGROV1 ovarian = system: IGROV1 ovarian
K-562 leukemia = system: K-562 leukemia
KM12 colon = system: KM12 colon
LOX IMVI melanoma = system: LOX IMVI melanoma
M14 melanoma = system: M14 melanoma
MALME-3M melanoma = system: MALME-3M melanoma
MCF7 breast = system: MCF7 breast
MDA-MB-231 breast = system: MDA-MB-231 breast
MDA-MB-435 = system: MDA-MB-435
MDA-MB-468 breast = system: MDA-MB-468 breast
MOLT-4 leukemia = system: MOLT-4 leukemia
NCI-H226 lung = system: NCI-H226 lung
NCI-H23 lung = system: NCI-H23 lung
NCI-H460 lung = system: NCI-H460 lung
NCI-H522 lung = system: NCI-H522 lung
OVCAR-3 ovarian = system: OVCAR-3 ovarian
OVCAR-4 ovarian = system: OVCAR-4 ovarian
OVCAR-5 ovarian = system: OVCAR-5 ovarian
OVCAR-8 ovarian = system: OVCAR-8 ovarian
PC-3 prostate = system: PC-3 prostate
RPMI-8226 leukemia = system: RPMI-8226 leukemia
RXF 393 renal = system: RXF 393 renal
SF-268 CNS = system: SF-268 CNS
SF-295 CNS = system: SF-295 CNS
SF-539 CNS = system: SF-539 CNS
SK-MEL-2 melanoma = system: SK-MEL-2 melanoma
SK-MEL-28 melanoma = system: SK-MEL-28 melanoma
SK-MEL-5 melanoma = system: SK-MEL-5 melanoma
SK-OV-3 ovarian = system: SK-OV-3 ovarian
SN12C renal = system: SN12C renal
SNB-19 CNS = system: SNB-19 CNS
SNB-75 CNS = system: SNB-75 CNS
SR leukemia = system: SR leukemia
SW-620 colon = system: SW-620 colon
T-47D breast = system: T-47D breast
TK-10 renal = system: TK-10 renal
U251 CNS = system: U251 CNS
UACC-257 melanoma = system: UACC-257 melanoma
UACC-62 melanoma = system: UACC-62 melanoma
UO-31 renal = system: UO-31 renal

Compound `CNC(=O)c1cccc(NC(=O)c2ccc3c(c2)nnn3/C(C#N)=C/c2ccccn2)c1` has a GI50 (786-0 renal) of 2.38 µM, a TGI (786-0 renal) of 7.7 µM and a GI50 (A498 renal) of 18.6 µM. It also gave a TGI (A498 renal) of 41.1 µM, a GI50 (A549 NSCLC) of 22.1 µM and a TGI (A549 NSCLC) of 60 µM. The GI50 (ACHN renal) was 13.7 µM, the TGI (ACHN renal) was 26.8 µM and the GI50 (BT-549 breast) was 1.95 µM. The TGI (BT-549 breast) was 5.59 µM, the GI50 (CAKI-1 renal) was 6.37 µM and the TGI (CAKI-1 renal) was 19.9 µM. The GI50 (CCRF-CEM leukemia) was 3.71 µM, the TGI (CCRF-CEM leukemia) was 38.4 µM and the GI50 (COLO 205 colon) was 2.63 µM. For the same compound, the TGI (COLO 205 colon) was 6.7 µM, the GI50 (DU-145 prostate) was 15.3 µM and the TGI (DU-145 prostate) was 29 µM. It also gave a GI50 (EKVX NSCLC) of 15.8 µM, a TGI (EKVX NSCLC) of 30.2 µM and a GI50 (HCC-2998 colon) of 16.1 µM. The TGI (HCC-2998 colon) was 29.8 µM, the GI50 (HCT-116 colon) was 2.74 µM and the TGI (HCT-116 colon) was 10.1 µM. The GI50 (HCT-15 colon) was 10.8 µM, the TGI (HCT-15 colon) was 23.6 µM and the GI50 (HL-60(TB) leukemia) was 3.21 µM. For the same compound, the TGI (HL-60(TB) leukemia) was 24.2 µM, the GI50 (HOP-62 NSCLC) was 17.9 µM and the TGI (HOP-62 NSCLC) was 41.2 µM. For the same compound, the GI50 (HOP-92 NSCLC) was 11.6 µM, the TGI (HOP-92 NSCLC) was 27.3 µM and the GI50 (HS 578T breast) was 12.6 µM. For the same compound, the TGI (HS 578T breast) was 38.1 µM, the GI50 (HT29 colon) was 10.5 µM and the TGI (HT29 colon) was 31.1 µM. For the same compound, the GI50 (IGROV1 ovarian) was 13.6 µM, the TGI (IGROV1 ovarian) was 27.5 µM and the GI50 (K-562 leukemia) was 3.11 µM. For the same compound, the TGI (K-562 leukemia) was > 100 µM, the GI50 (KM12 colon) was 16.5 µM and the TGI (KM12 colon) was 46.9 µM. For the same compound, the GI50 (LOX IMVI melanoma) was 1.86 µM, the TGI (LOX IMVI melanoma) was 3.9 µM and the GI50 (M14 melanoma) was 10.9 µM. The TGI (M14 melanoma) was 23 µM, the GI50 (MALME-3M melanoma) was 1.85 µM and the TGI (MALME-3M melanoma) was 3.94 µM. The GI50 (MCF7 breast) was 3.46 µM, the TGI (MCF7 breast) was 15.6 µM and the GI50 (MDA-MB-231 breast) was 11.8 µM. For the same compound, the TGI (MDA-MB-231 breast) was 24.7 µM, the GI50 (MDA-MB-435) was 7.69 µM and the TGI (MDA-MB-435) was 21.4 µM. The GI50 (MDA-MB-468 breast) was 1.71 µM, the TGI (MDA-MB-468 breast) was 3.43 µM and the GI50 (MOLT-4 leukemia) was 3.51 µM. For the same compound, the TGI (MOLT-4 leukemia) was 39 µM, the GI50 (NCI-H226 lung) was 14.3 µM and the TGI (NCI-H226 lung) was 29.2 µM. The GI50 (NCI-H23 lung) was 13.4 µM, the TGI (NCI-H23 lung) was 26.8 µM and the GI50 (NCI-H460 lung) was 15.7 µM. For the same compound, the TGI (NCI-H460 lung) was 34.1 µM, the GI50 (NCI-H522 lung) was 1.61 µM and the TGI (NCI-H522 lung) was 3.14 µM. The GI50 (OVCAR-3 ovarian) was 3.11 µM, the TGI (OVCAR-3 ovarian) was 10.2 µM and the GI50 (OVCAR-4 ovarian) was 15.7 µM. The TGI (OVCAR-4 ovarian) was 29.4 µM, the GI50 (OVCAR-5 ovarian) was 15.7 µM and the TGI (OVCAR-5 ovarian) was 29.3 µM. The GI50 (OVCAR-8 ovarian) was 15.3 µM, the TGI (OVCAR-8 ovarian) was 29.8 µM and the GI50 (PC-3 prostate) was 19.2 µM. It also gave a TGI (PC-3 prostate) of 48 µM, a GI50 (RPMI-8226 leukemia) of 10.4 µM and a TGI (RPMI-8226 leukemia) of 52.1 µM. It also gave a GI50 (RXF 393 renal) of 4.88 µM, a TGI (RXF 393 renal) of 16.9 µM and a GI50 (SF-268 CNS) of 17.9 µM. It also gave a TGI (SF-268 CNS) of 41.4 µM, a GI50 (SF-295 CNS) of 19.7 µM and a TGI (SF-295 CNS) of 39.5 µM. For the same compound, the GI50 (SF-539 CNS) was 13.8 µM, the TGI (SF-539 CNS) was 26.9 µM and the GI50 (SK-MEL-2 melanoma) was 12.8 µM. It also gave a TGI (SK-MEL-2 melanoma) of 25.9 µM, a GI50 (SK-MEL-28 melanoma) of 1.95 µM and a TGI (SK-MEL-28 melanoma) of 4.33 µM. For the same compound, the GI50 (SK-MEL-5 melanoma) was 14.1 µM, the TGI (SK-MEL-5 melanoma) was 27.4 µM and the GI50 (SK-OV-3 ovarian) was 30.2 µM. For the same compound, the TGI (SK-OV-3 ovarian) was > 100 µM, the GI50 (SN12C renal) was 16.4 µM and the TGI (SN12C renal) was 30.3 µM. The GI50 (SNB-19 CNS) was 18.6 µM, the TGI (SNB-19 CNS) was 38.9 µM and the GI50 (SNB-75 CNS) was 17.7 µM. For the same compound, the TGI (SNB-75 CNS) was 92.4 µM, the GI50 (SR leukemia) was 2.76 µM and the TGI (SR leukemia) was > 100 µM. The GI50 (SW-620 colon) was 1.87 µM, the TGI (SW-620 colon) was 3.75 µM and the GI50 (T-47D breast) was 2.31 µM. It also gave a TGI (T-47D breast) of 7.38 µM, a GI50 (TK-10 renal) of 14 µM and a TGI (TK-10 renal) of 27.6 µM. The GI50 (U251 CNS) was 15.3 µM, the TGI (U251 CNS) was 32.2 µM and the GI50 (UACC-257 melanoma) was 8.21 µM. The TGI (UACC-257 melanoma) was 21.2 µM, the GI50 (UACC-62 melanoma) was 14 µM and the TGI (UACC-62 melanoma) was 27.7 µM. It also gave a GI50 (UO-31 renal) of 12.7 µM and a TGI (UO-31 renal) of 25.3 µM.
